# Test results as given in ChEMBL document CHEMBL1135273, “5-Phosphonomethylquinoxalinediones as competitive NMDA receptor antagonists with a preference for the human 1A/2A, rather than 1A/2B receptor composition” (Bioorg Med Chem Lett, 2002).
# Activity calls are given as the source filed them. The calls are words filed in the database; no cut-off is given here.
# Legend:
# [1] = molecular target: Glutamate [NMDA] receptor; experiment: In vitro inhibitory activity at 1 uM concentration against N-methyl-D-aspartate glutamate receptor, using [3H]CGP-39653 binding assay; assay type: protein-complex assay
# Mus musculus [2] = species: Mus musculus; experiment: Anticonvulsant effect in mouse electroshock-induced seizure test (MES).; assay type: functional
# [3] = tested on: GRIN1/GRIN2A vs GRIN1/GRIN2B (Homo sapiens); experiment: Ratio of human NMDA 1A/2A receptor to human NMDA 1A/2B receptor was determined in xenopus oocytes; 1/111; settings: Oocyte
# [4] = tested on: GRIN1/GRIN2A vs GRIN1/GRIN2B (Homo sapiens); experiment: Ratio of human NMDA 1A/2A receptor to human NMDA 1A/2B receptor was determined in xenopus oocytes; >1/17; settings: Oocyte
# [5] = molecular target: Glutamate NMDA receptor; GRIN1/GRIN2A (Homo sapiens, UniProt Q05586+Q12879); experiment: Inhibitory activity against Xenopus laevis oocyte expressing 1A/2A heteromeric human NMDA (hNMDA) receptor; assay type: protein-complex assay
# Sequence of Glutamate NMDA receptor; GRIN1/GRIN2A (Q12879 whole entry, other chains not shown): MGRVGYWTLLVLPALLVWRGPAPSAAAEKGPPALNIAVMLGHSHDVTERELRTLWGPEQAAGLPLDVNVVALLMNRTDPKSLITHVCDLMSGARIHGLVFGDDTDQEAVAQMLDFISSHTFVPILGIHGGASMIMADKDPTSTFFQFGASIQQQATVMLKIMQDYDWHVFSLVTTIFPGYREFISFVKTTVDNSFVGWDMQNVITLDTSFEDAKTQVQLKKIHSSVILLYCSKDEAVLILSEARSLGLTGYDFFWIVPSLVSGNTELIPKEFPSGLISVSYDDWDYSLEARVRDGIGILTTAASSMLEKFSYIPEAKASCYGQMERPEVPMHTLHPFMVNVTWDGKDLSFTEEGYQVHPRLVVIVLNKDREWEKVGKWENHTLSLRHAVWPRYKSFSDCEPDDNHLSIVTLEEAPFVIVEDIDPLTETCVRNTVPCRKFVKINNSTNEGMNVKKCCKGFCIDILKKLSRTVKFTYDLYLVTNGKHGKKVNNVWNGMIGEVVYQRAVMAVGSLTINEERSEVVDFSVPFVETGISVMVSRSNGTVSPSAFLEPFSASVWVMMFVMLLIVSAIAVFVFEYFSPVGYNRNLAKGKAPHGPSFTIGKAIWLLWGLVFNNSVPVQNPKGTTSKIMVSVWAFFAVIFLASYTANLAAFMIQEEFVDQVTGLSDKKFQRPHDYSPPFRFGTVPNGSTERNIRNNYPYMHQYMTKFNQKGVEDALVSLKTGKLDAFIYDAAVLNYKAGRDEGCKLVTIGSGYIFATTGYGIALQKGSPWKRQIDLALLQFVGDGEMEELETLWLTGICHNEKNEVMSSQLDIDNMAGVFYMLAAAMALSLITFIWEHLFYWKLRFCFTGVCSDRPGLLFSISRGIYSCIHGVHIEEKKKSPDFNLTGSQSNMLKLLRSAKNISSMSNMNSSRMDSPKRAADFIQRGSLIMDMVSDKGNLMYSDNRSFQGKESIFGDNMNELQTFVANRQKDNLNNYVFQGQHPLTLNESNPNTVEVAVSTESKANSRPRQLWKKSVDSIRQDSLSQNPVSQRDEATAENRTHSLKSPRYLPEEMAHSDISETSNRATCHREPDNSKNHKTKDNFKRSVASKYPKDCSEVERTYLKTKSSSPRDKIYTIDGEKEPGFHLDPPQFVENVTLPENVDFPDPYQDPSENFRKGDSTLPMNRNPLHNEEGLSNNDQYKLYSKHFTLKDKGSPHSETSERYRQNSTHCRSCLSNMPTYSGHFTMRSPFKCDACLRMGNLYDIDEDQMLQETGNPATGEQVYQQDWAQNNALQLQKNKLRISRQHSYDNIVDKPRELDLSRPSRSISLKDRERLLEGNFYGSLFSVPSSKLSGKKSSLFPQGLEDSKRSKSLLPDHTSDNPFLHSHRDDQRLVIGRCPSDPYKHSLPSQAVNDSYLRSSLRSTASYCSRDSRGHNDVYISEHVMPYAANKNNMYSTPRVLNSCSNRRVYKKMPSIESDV
# [6] = molecular target: Glutamate NMDA receptor; GRIN1/GRIN2B (Homo sapiens, UniProt Q05586+Q13224); experiment: Inhibitory activity against Xenopus laevis oocyte expressing 1A/2B heteromeric human NMDA (hNMDA) receptor; assay type: protein-complex assay
# Sequence of Glutamate NMDA receptor; GRIN1/GRIN2B (Q13224 whole entry, other chains not shown): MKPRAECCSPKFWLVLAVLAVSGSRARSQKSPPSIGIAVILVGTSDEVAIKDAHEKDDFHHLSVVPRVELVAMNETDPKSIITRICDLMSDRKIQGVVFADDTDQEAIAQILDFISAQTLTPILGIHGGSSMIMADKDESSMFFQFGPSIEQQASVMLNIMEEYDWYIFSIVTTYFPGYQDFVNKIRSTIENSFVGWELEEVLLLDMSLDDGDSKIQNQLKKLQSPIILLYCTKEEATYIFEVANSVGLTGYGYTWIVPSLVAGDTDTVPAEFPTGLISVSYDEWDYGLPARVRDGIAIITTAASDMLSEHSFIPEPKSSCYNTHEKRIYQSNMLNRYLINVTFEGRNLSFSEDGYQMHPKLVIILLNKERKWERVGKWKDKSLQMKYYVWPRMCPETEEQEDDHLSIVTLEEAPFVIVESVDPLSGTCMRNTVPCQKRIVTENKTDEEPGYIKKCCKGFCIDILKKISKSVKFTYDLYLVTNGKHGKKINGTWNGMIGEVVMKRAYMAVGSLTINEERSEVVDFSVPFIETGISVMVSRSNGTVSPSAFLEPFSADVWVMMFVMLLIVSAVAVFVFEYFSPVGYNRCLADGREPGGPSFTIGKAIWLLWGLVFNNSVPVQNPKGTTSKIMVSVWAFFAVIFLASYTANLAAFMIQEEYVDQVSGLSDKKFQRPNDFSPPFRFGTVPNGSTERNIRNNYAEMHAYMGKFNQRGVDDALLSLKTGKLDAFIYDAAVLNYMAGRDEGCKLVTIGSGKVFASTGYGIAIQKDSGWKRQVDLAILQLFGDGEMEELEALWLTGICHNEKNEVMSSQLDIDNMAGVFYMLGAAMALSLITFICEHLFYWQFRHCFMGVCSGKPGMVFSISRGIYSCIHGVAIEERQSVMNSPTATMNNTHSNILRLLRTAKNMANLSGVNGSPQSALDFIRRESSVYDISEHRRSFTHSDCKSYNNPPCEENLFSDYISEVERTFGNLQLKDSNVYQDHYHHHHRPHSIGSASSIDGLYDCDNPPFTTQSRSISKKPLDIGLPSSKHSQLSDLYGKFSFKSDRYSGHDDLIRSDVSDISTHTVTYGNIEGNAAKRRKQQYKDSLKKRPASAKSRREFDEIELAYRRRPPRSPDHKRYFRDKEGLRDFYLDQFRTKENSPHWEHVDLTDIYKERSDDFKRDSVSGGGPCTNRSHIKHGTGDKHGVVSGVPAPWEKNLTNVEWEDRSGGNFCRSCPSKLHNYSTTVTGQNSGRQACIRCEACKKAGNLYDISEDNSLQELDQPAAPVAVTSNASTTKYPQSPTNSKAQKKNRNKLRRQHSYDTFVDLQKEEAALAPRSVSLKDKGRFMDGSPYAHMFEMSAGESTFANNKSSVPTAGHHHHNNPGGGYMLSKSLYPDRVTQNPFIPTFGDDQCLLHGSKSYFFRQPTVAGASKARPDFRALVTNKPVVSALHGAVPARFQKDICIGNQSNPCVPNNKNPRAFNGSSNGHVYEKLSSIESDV
# [7] = tested on: GRIN1/GRIN2A vs GRIN1/GRIN2B (Homo sapiens); experiment: Ratio of human NMDA 1A/2A receptor to human NMDA 1A/2B receptor was determined in xenopus oocytes; 1/50; settings: Oocyte
# [8] = tested on: GRIN1/GRIN2A vs GRIN1/GRIN2B (Homo sapiens); experiment: Ratio of human NMDA 1A/2A receptor to human NMDA 1A/2B receptor was determined in xenopus oocytes; 1/40; settings: Oocyte
# [9] = tested on: GRIN1/GRIN2A vs GRIN1/GRIN2B (Homo sapiens); experiment: Ratio of human NMDA 1A/2A receptor to human NMDA 1A/2B receptor was determined in xenopus oocytes; 1/13; settings: Oocyte
# [10] = tested on: GRIN1/GRIN2A vs GRIN1/GRIN2B (Homo sapiens); experiment: Ratio of human NMDA 1A/2A receptor to human NMDA 1A/2B receptor was determined in xenopus oocytes; 1/8; settings: Oocyte
# [11] = tested on: GRIN1/GRIN2A vs GRIN1/GRIN2B (Homo sapiens); experiment: Ratio of human NMDA 1A/2A receptor to human NMDA 1A/2B receptor was determined in xenopus oocytes; 1/14; settings: Oocyte
# [12] = tested on: Glutamate [NMDA] receptor; experiment: The compound was tested in vitro for its inhibitory activity at 1 uM concentration against N-methyl-D-aspartate glutamate receptor by using [3H]CGP-39653 binding assay; Inactive; assay type: protein-complex assay
# Mus musculus [13] = experiment: Compound at a dose 50 mg/kg was administered intraperitoneally into mouse and percent protection was determined after 1 hour; assay type: functional; settings: route intraperitoneal
# [14] = molecular target: Glutamate [NMDA] receptor; experiment: Compound was tested in vitro for its inhibitory activity at 1 uM concentration against N-methyl-D-aspartate glutamate receptor by using [3H]CGP-39653 binding assay; assay type: protein-complex assay
# [15] = tested on: GRIN1/GRIN2A vs GRIN1/GRIN2B (Homo sapiens); experiment: Ratio of human NMDA 1A/2A receptor to human NMDA 1A/2B receptor was determined in xenopus oocytes; 1/15; settings: Oocyte
# Mus musculus [16] = experiment: Compound was evaluated for its anticonvulsant effect in mouse electroshock-induced seizure test (MES), 8 hr after intraperitoneal administration; assay type: functional; settings: ip
# [17] = Compound was tested in vitro for its inhibitory activity against Xenopus laevis oocyte expressing 1A/2A heteromeric human NMDA (hNMDA) receptor
# [18] = Compound was tested in vitro for its inhibitory activity against Xenopus laevis oocyte expressing 1A/2B heteromeric human NMDA (hNMDA) receptor
# Mus musculus [19] = experiment: Compound was evaluated for its anticonvulsant effect in mouse electroshock-induced seizure test (MES), 8 hr after oral administration; assay type: functional
# [20] = tested on: GRIN1/GRIN2A vs GRIN1/GRIN2B (Homo sapiens); experiment: Ratio of human NMDA 1A/2A receptor to human NMDA 1A/2B receptor was determined in xenopus oocytes; 1/11; settings: Oocyte
# [21] = tested on: GRIN1/GRIN2A vs GRIN1/GRIN2B (Homo sapiens); experiment: Ratio of human NMDA 1A/2A receptor to human NMDA 1A/2B receptor was determined in xenopus oocytes; 1/1; settings: Oocyte
# [22] = molecular target: Glutamate [NMDA] receptor (Homo sapiens) (UniProt Q05586+Q12879+Q13224+O15399+O60391+Q14957+Q8TCU5); experiment: The compound was tested in vitro for percent inhibition at 1 uM concentration against N-methyl-D-aspartate glutamate receptor by using [3H]CGP-39653 binding assay; assay type: protein-complex assay
# [23] = tested on: GRIN1/GRIN2A vs GRIN1/GRIN2B (Homo sapiens); experiment: Ratio of human NMDA 1A/2A receptor to human NMDA 1A/2B receptor was determined in xenopus oocytes; 1/9; settings: Oocyte
# [24] = tested on: GRIN1/GRIN2A vs GRIN1/GRIN2B (Homo sapiens); experiment: Ratio of human NMDA 1A/2A receptor to human NMDA 1A/2B receptor was determined in xenopus oocytes; 1/10; settings: Oocyte
# [25] = tested on: GRIN1/GRIN2A vs GRIN1/GRIN2B (Homo sapiens); experiment: Ratio of human NMDA 1A/2A receptor to human NMDA 1A/2B receptor was determined in xenopus oocytes; 1/7; settings: Oocyte
# [26] = tested on: GRIN1/GRIN2A vs GRIN1/GRIN2B (Homo sapiens); experiment: Ratio of human NMDA 1A/2A receptor to human NMDA 1A/2B receptor was determined in xenopus oocytes; 1/26; settings: Oocyte
IC50 [1],IC50 [5],IC50 [6],Structure (SMILES),ED50 (Mus musculus [2]),also measured
0.027 µM,1.7 µM,> 30 µM,C[C@H](NC(c1cccc2nc(O)c(O)nc12)P(=O)(O)O)c1cccc2ccccc12 (some centres not stated),15 mg/kg,Ratio [4]: Active
0.0097 µM,0.018 µM,0.9 µM,C[C@H](NC(c1cccc2nc(O)c(O)nc12)P(=O)(O)O)c1ccccc1 (some centres not stated),6.7 mg/kg,Ratio [7]: Active
0.0074 µM,0.04 µM,1.6 µM,O=P(O)(O)C(NCCc1ccccc1)c1cccc2nc(O)c(O)nc12 (configuration not stated),10 mg/kg,Ratio [8]: Active
0.002 µM,0.0042 µM,0.034 µM,Br.O=P(O)(O)C(NCc1ccccc1)c1cccc2nc(O)c(O)nc12 (configuration not stated),2 mg/kg,Ratio [10]: Active
0.12 µM,0.06 µM,0.82 µM,O=P(O)(O)C(N[C@H]1CCc2ccccc21)c1cccc2nc(O)c(O)nc12 (some centres not stated),2 mg/kg,Ratio [11]: Active
0.16 µM,0.6 µM,30 µM,CN(Cc1ccccc1)C(c1cccc2nc(O)c(O)nc12)P(=O)(O)O (configuration not stated),,Protection (Mus musculus [13]): 40%; Ratio [7]: Active
1.1 µM,0.79 µM,6.2 µM,CNC(c1cccc2nc(O)c(O)nc12)P(=O)(O)O (configuration not stated),,Ratio [10]: Active
0.031 µM,0.05 µM,0.57 µM,C[C@@H](NC(c1cccc2nc(O)c(O)nc12)P(=O)(O)O)c1ccccc1 (some centres not stated),,Protection (Mus musculus [13]): 60%; Ratio [20]: Active
0.0015 µM,0.0011 µM,0.0007 µM,O=P(O)(O)C(O)c1cccc2nc(O)c(O)nc12 (configuration not stated),0.5 mg/kg,Ratio [21]: Active
0.13 µM,0.49 µM,6.2 µM,O=P(O)(O)C(Nc1ccccc1)c1cccc2nc(O)c(O)nc12 (configuration not stated),,Protection (Mus musculus [13]): 0%; Ratio [10]: Active
0.038 µM,0.17 µM,1.5 µM,O=P(O)(O)C(NC(c1ccccc1)c1ccccc1)c1cccc2nc(O)c(O)nc12 (configuration not stated),2.3 mg/kg,Ratio [23]: Active
0.25 µM,,,O=C(O)Cc1cccc2nc(O)c(O)nc12,,
0.86 µM,2.8 µM,24 µM,CC(=O)N(C)C(c1cccc2nc(O)c(O)nc12)P(=O)(O)O (configuration not stated),,Ratio [23]: Active

# More lines, now with the values behind:
Structure (SMILES),IC50 [1],IC50 [5],IC50 [6],ED50 (Mus musculus [2]),also measured
Br.O=[N+]([O-])c1cc(C(NCc2ccco2)P(=O)(O)O)c2nc(O)c(O)nc2c1 (configuration not stated),0.0041 µM,,,3.7 mg/kg,
C[C@H](NC(c1cccc2nc(O)c(O)nc12)P(=O)(O)O)c1ccc(Br)cc1 (some centres not stated),,,,23 mg/kg,Ratio [3]: Active
CC(=O)OC(c1cc([N+](=O)[O-])cc2nc(O)c(O)nc12)P(=O)(O)O (configuration not stated),0.0081 µM,,,5 mg/kg,
Cl.O=[N+]([O-])c1cc(C(NCC2CCCCC2)P(=O)(O)O)c2nc(O)c(O)nc2c1 (configuration not stated),0.003 µM,,,4 mg/kg,
COC(=O)NC(c1cc([N+](=O)[O-])cc2nc(O)c(O)nc12)P(=O)(O)O (configuration not stated),0.37 µM,0.11 µM,1.4 µM,8.8 mg/kg,Ratio [9]: Active
COC(c1cc([N+](=O)[O-])cc2nc(O)c(O)nc12)P(=O)(O)O (configuration not stated),0.017 µM,,,,
O=P(O)(O)Cc1ccc2nc(O)c(O)nc2c1,,,,,IC50 [12]: Not Active
O=P(O)(O)Cc1cccc2nc(O)c(O)nc12,,,,0.7 mg/kg,IC50 [14]: 0.0005 µM; Ratio [15]: Active; ED50 (Mus musculus [16]): 1.1 mg/kg; IC50 [17]: 0.002 µM; IC50 [18]: 0.03 µM; ED50 (Mus musculus [19]): 6.7 mg/kg
O=P(O)(O)Cc1cc(Cl)cc2nc(O)c(O)nc12,0.0017 µM,,,2.4 mg/kg,
CP(=O)(O)C(O)c1cc([N+](=O)[O-])cc2nc(O)c(O)nc12 (configuration not stated),,,,,Protection (Mus musculus [13]): 0%; inhibition [22]: 42%
C[C@H](NC(c1cccc2[nH]c(=O)c(=O)[nH]c12)P(=O)(O)O)c1ccc(Br)cc1 (some centres not stated),0.008 µM,0.27 µM,29.6 µM,,
O=[N+]([O-])c1cc(C(O)P(=O)(O)O)c2nc(O)c(O)nc2c1 (configuration not stated),0.0012 µM,,,1.2 mg/kg,
Cl.NC(c1cc([N+](=O)[O-])cc2nc(O)c(O)nc12)P(=O)(O)O (configuration not stated),0.04 µM,,,11.6 mg/kg,
O=P(O)(O)Cc1cc(F)cc2nc(O)c(O)nc12,0.001 µM,,,,
CCCNC(c1cc([N+](=O)[O-])cc2nc(O)c(O)nc12)P(=O)(O)O.Cl (configuration not stated),0.065 µM,0.09 µM,0.93 µM,2.8 mg/kg,Ratio [24]: Active
O=P(O)(O)Cc1cc(-c2ccc(Cl)cc2)cc2nc(O)c(O)nc12,0.0008 µM,0.0002 µM,0.0018 µM,0.7 mg/kg,Ratio [23]: Active
O=P(O)(O)Cc1cc(Br)cc2nc(O)c(O)nc12,0.0015 µM,,,2.5 mg/kg,
Br.CP(=O)(O)C(NCc1ccccc1)c1cc([N+](=O)[O-])cc2nc(O)c(O)nc12 (configuration not stated),0.08 µM,0.2 µM,1.3 µM,,Ratio [25]: Active; Protection (Mus musculus [13]): 0%
Br.O=[N+]([O-])c1cc(C(NCc2ccccc2)P(=O)(O)O)c2nc(O)c(O)nc2c1 (configuration not stated),0.0015 µM,,,1.5 mg/kg,
Br.O=[N+]([O-])c1cc(C(NCc2ccccc2)P(=O)(O)Cc2ccccc2)c2nc(O)c(O)nc2c1 (configuration not stated),0.06 µM,0.05 µM,1.3 µM,,Ratio [26]: Active; Protection (Mus musculus [13]): 20%
